Results on two molecules are retold here after patent US4931569A, “Purification of stable water-soluble dioxetanes” (Tropix, Inc., priority 1988, dated 1990).

The subject of one data set is alkaline phosphatase. Briefly: alkaline phosphatase chemiluminescence assay (light emission, Turner 20E Luminometer; sensitivity plot). In kind it is biochemical. The note with it: for light emission upon reaction with alkaline phosphatase: peaks collected from preparative HPLC (FIG. 1), lyophilized, tested as substrate, FIG. 2. The text has this:
Another such method involves testing the 1,2-dioxetane derivative as a substrate for an enzyme in a chemiluminescence assay (see for example, Example 2 infra), and comparing its behavior to that of an authentic sample of highly pure substrate in the same assay. The light intensity produced per unit amount of the substrate is directly proportional to the degree of purity of the substrate, when compared to the light intensity produced by the highly pure sample. When the light intensity produced from pure and impure substrate is plotted as a function of the molar concentration of the biochemical analyte, a family of parallel sigmoid curves is produced; this is called a sensitivity plot. The sensitivity curve for an impure sample will be shifted to the right of the curve for a pure sample; that is, the assay is less sensitive when using the impure sample. The greater the degree of impurity, the greater the shift of the sensitivity curve to the right. Purification of the crude reaction products of the chemical syntheses of the chemiluminescent, water-soluble 1,2 dioxetane derivatives by the methods of this invention will increase the sensitivity of the assay using the dioxetane product by at least 2-fold, preferably about 10-fold (see Example 6, FIG. 9).
The breakdown product and the AMPPD from FIG. 1 were collected, dried by lyophilization, then tested as a substrate for alkaline phosphatase in a chemiluminescence assay. The details of this assay are provided in copending U S. Pat. Application Ser. No. 889,823, which is incorporated herein by reference to the extent that it discloses assay conditions for alkaline phosphatase. Light emission was determined in a Turner 20E Luminometer.
The alkaline phosphatase chemiluminescent assay was applied to a relatively crude sample of AMPPD from Example 4, FIG. 5, and to an HPLC purified sample of AMPPD from Example 3, FIG. 3D. Light intensity produced in the chemiluminescent assay was plotted as a function of the molar concentration of alkaline phosphatase in the assay mixture (FIG. 9).

The nature of data set [1]: stability of the dioxetane in solution or after lyophilization, followed by analytical HPLC. In kind it is physicochemical. On the procedure: Peak fractions from FIG. 3C were combined, lyophilized, then analyzed by analytical HPLC on a reversed phase PLRP-S analytical column with a gradient of acetonitrile in 0.1% NaHCO3 buffer, pH 8.6, as the mobile phase.
The AMPPD fraction from FIG. 4 was collected, freeze-dried, then fractionated on an analytical size column of Dynamax C-18 using as the mobile phase a gradient of acetonitrile in 0.1% ammonium acetate, pH 7.0.
The 6 minute AMPPD peak from FIG. 4, which eluted with 31% acetonitrile in 0.1% ammonium acetate buffer, pH 7.0, was stored overnight in this solution without concentration, then chromatographed by HPLC on an analytical Dynamax C-18 column in a gradient of acetonitrile in 0.1% ammonium acetate buffer, pH 7.0 (FIG. 6).
When, however, AMPPD in the 6-minute peak from preparative HPLC (FIG. 4) was stored in the presence of the ammonium acetate column effluent for long periods of time at 4° C.

Structures can show the parent of a compound that is named as a salt.

With `COC1(c2cccc(OP(=O)(O)O)c2)OOC12C1CC3CC(C1)CC2C3` (centres unmarked) [AMPPD, 3-(2'-spiroadamantane)-4-methoxy-4-(3"-phosphoryloxy)phenyl-1,2-dioxetane disodium salt], the “sensitivity of the chemiluminescent assay relative to crude AMPPD” value with alkaline phosphatase (HPLC purified sample (FIG. 3D) vs crude sample (FIG. 5), at all concentrations of alkaline phosphatase, FIG. 9) is listed as “at least an order of magnitude greater”. Further, the “light emission upon reaction with alkaline phosphatase” value with alkaline phosphatase is listed as “typical of AMPPD”. Moreover, in the data set with alkaline phosphatase (with purified AMPPD as substrate), the “lowest concentration of alkaline phosphatase that could be detected” value is given as “about 10^-15 M”. Further, the “stability on brief (overnight) storage in ammonium acetate buffer” value in data set [1] (31% acetonitrile in 0.1% ammonium acetate buffer, pH 7.0, without concentration, FIG. 6) is “did not lead to significant breakdown”. Besides, the stability in water result in data set [1] (desalted and non-desalted preparations, analytical HPLC on PLRP-S, FIG. 3D) was “stable for long periods”. The “stability after lyophilization in the presence of ammonium ions” value in data set [1] (freeze-dried from 0.1% ammonium acetate buffer, pH 7.0, analytical HPLC on Dynamax C-18, FIG. 5) is recorded as “unstable”. In addition, the “stability on long-term storage in ammonium acetate column effluent” value in data set [1] (long periods of time at 4° C. in the dark, analytical HPLC on Dynamax C18, FIG. 7) was “increased breakdown”.

For the molecule `COC(=O)c1cccc(OP(=O)(O)O)c1` [Breakdown Product], the “light emission upon reaction with alkaline phosphatase” value in the data set on alkaline phosphatase is listed as “no light emission”.
